Experimental data reported in ChEMBL document CHEMBL1201862, “PubChem BioAssay data set” (2004).
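The compound was tested at five concentrations on cells cultured in 96-well plates, with a 48-hour exposure period. GI50 = concentration required for 50% inhibition of growth.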 The source made the active and inactive calls. No stated cut-off is given here; in the data, active = GI50 up to about 1.1 µM and inactive = higher.

What was measured:
Assay in all cases: NCI anticancer screen, dose series, 48 h
KM12 = tested on: KM12
EKVX = tested on: EKVX
RPMI-8226 = tested on: RPMI-8226
UO-31 = tested on: UO-31
OVCAR-8 = tested on: OVCAR-8
NCI-H23 = tested on: NCI-H23
SF-268 = tested on: SF-268
OVCAR-3 = tested on: OVCAR-3
A498 = tested on: A498
RXF 393 = tested on: RXF 393
TK-10 = tested on: TK-10
HOP-92 = tested on: HOP-92
M14 = tested on: M14
SW-620 = tested on: SW-620
DU-145 = tested on: DU-145
T47D = tested on: T47D
HCT-116 = tested on: HCT-116
NCI-H460 = tested on: NCI-H460
K562 = tested on: K562

Measured: GI50

CSc1nc(-c2ccccc2)[nH]c(=O)n1
inactive: KM12 > 100 µM | EKVX > 100 µM | RPMI-8226 > 100 µM | UO-31 > 100 µM | OVCAR-8 > 100 µM | NCI-H23 > 100 µM | SF-268 > 100 µM | OVCAR-3 > 100 µM | A498 > 100 µM | RXF 393 > 100 µM | TK-10 > 100 µM | HOP-92 > 100 µM | M14 > 100 µM | SW-620 > 100 µM | DU-145 > 100 µM | T47D > 100 µM | HCT-116 > 100 µM

N#CC(C(=O)c1ccccc1F)c1nc2cc(C(F)(F)F)ccc2s1 (stereo unspecified)
inactive: KM12 32.5 µM | EKVX 22.4 µM | RPMI-8226 22 µM | OVCAR-8 31.6 µM | NCI-H23 19.7 µM | SF-268 30.3 µM | OVCAR-3 16.6 µM | NCI-H460 30.1 µM | A498 14 µM | RXF 393 24 µM | TK-10 30.8 µM | HOP-92 19.1 µM | SW-620 30.6 µM | DU-145 28.3 µM | T47D 25.9 µM | HCT-116 19.2 µM

CC1(C)S[C@@H]2[C@H](N3C(=O)c4ccccc4C3=O)CN2[C@H]1NC(=O)N[C@@H]1N2C[C@@H](N3C(=O)c4ccccc4C3=O)[C@H]2SC1(C)C
inactive: KM12 > 100 µM | RPMI-8226 > 100 µM | UO-31 > 100 µM | OVCAR-8 58.3 µM | NCI-H23 > 100 µM | SF-268 28.9 µM | OVCAR-3 > 100 µM | K562 > 100 µM | NCI-H460 > 100 µM | A498 > 100 µM | RXF 393 45.3 µM | TK-10 77.1 µM | HOP-92 42.2 µM | M14 > 100 µM | SW-620 > 100 µM | DU-145 > 100 µM | T47D > 100 µM | HCT-116 > 100 µM

CC(C)C1OC(N)=C(C#N)C1(C#N)C#N (stereo unspecified)
inactive: KM12 > 100 µM | EKVX 62.2 µM | RPMI-8226 29 µM | UO-31 33.1 µM | OVCAR-8 41.9 µM | NCI-H23 33.3 µM | SF-268 44.2 µM | K562 8.49 µM | A498 > 100 µM | RXF 393 44.7 µM | TK-10 83.4 µM | HOP-92 31.3 µM | M14 60.7 µM | SW-620 14.3 µM | DU-145 51.3 µM | T47D 67.3 µM | HCT-116 26.3 µM

NC(=S)NS(=O)(=O)c1ccc(F)cc1
inactive: KM12 > 100 µM | EKVX > 100 µM | RPMI-8226 > 100 µM | OVCAR-8 > 100 µM | NCI-H23 > 100 µM | SF-268 > 100 µM | OVCAR-3 > 100 µM | K562 > 100 µM | NCI-H460 > 100 µM | RXF 393 > 100 µM | TK-10 > 100 µM | HOP-92 > 100 µM | M14 > 100 µM | SW-620 > 100 µM | DU-145 > 100 µM | T47D > 100 µM | HCT-116 > 100 µM

COc1cccc([C@@H]2C/C(=N\NC(=O)C(=O)N[C@@H](C)c3ccccc3)c3cc4c(cc3N2)OCO4)c1
inactive: KM12 6.89 µM | EKVX 65.9 µM | RPMI-8226 30.5 µM | UO-31 > 100 µM | SF-268 29.9 µM | OVCAR-3 30.1 µM | K562 13.2 µM | A498 47.4 µM | RXF 393 > 100 µM | TK-10 > 100 µM | HOP-92 > 100 µM | M14 34.1 µM | SW-620 16 µM | DU-145 > 100 µM | T47D > 100 µM | HCT-116 22.4 µM
